Test results reported in patent US12404304B1, “Telomerase reverse transcriptase (TERT) expression enhancing compounds and methods for using the same” (Sierra Sciences, LLC, priority 2007, dated 2025).

How the values were obtained:
viable cells in culture = experiment: Cell viability assay (CellTiter-Glo Luminescent Cell Viability Assay, ATP quantitation, percent of vehicle control)
Description: Cell viability is determined using a homogeneous method, such as CellTiter-Glo® Luminescent Cell Viability Assay (Promega Corporation, Madison, WI.) to determine the number of viable cells in culture These assays are based on quantitation of the ATP present, which signals the presence of metabolically active cells. Luminescent values of compound treated cells are compared to that of cells treated with vehicle alone to determine the average cell viability as a percent of control.

[1] = system: human TERT expression (hTERT mRNA); experiment: Quantitative real-time RT-PCR of hTERT mRNA expression (Ct, transcripts) in compound-treated cells; assay type: cell-based; details: quantitative real-time RT-PCR
From the text: Telomerase is a ribonucleoprotein complex composed of the catalytic protein subunit (human telomerase reverse transcriptase or hTERT) and the RNA template. hTERT expression level can be measured by PCR.
Briefly, amplification of the target sequence is monitored per PCR cycle by detecting the fluorescence signal emitted by an internal probe that is degraded by the 5′ nuclease activity of the Taq polymerase. The emission signal accumulates in each sample, and the Ct required to reach a given fluorescence threshold is determined (Ct stands for Cycle Threshold and is a measure of the number of PCR cycles that are required to amplify a target—thus, a lower Ct score means that there is more abundant hTERT mRNA). Thus, the Ct value of a sample inversely correlates to the quantity of the starting cDNA which correlates to the number of mRNA transcripts. Using the cDNA of known quantity, a standard curve can be generated and used to determine the starting amount of mRNA transcripts based on the […] of each sample.
Quantitative real-time PCR can be done on cDNA from test compound-treated and nontreated cells by use of a ABI Prism 7900 Sequence Detection System (PE Applied Biosystems, Foster City, CA) following the Assays-on-Demand protocol (PE Applied Biosystems, Foster City, CA). Quantitative data can be analyzed using the Sequence Detection System software version 2.1 (PE Applied Biosystems).
The following compounds were tested in assays designed to identify compounds that enhance human TERT expression.

| Compound | Average Cell Viability after 24 Hours (% DMSO) (viable cells in culture) | Average Number of hTERT Transcripts [1] |
| --- | --- | --- |
| O=C(Nc1nc(-c2ccccn2)cs1)C1COc2ccccc2O1 (stereo not shown) [compound 1204] | 55.98 | 76.87 |
| O=C(Nc1nc(-c2ccccn2)cs1)c1ccc2ncsc2c1 [compound 1205] | 86.42 | 114.55 |
| O=C(NCC1CCCO1)c1cc(-c2cccs2)on1 (stereo not shown) [compound 1206] | 83.74 | 80.15 |
| CCNC(=O)c1cc(-c2cccs2)on1 [compound 1207] | 87.06 | 275.25 |
| O=C(NC1CC1)c1cc(-c2cccs2)on1 [compound 1208] | 70.93 | 380.09 |
| C=CCN1C(C(=O)c2ccccc2)=C(OC(=O)c2ccc(Cl)cc2)c2ccccc2S1(=O)=O [compound 1209] | 91.26 | 21.73 |
| O=C(CN1C(C(=O)c2ccccc2)=C(O)c2ccccc2S1(=O)=O)c1ccc(Br)cc1 [compound 1210] | 62.70 | 26.56 |
| O=C(CN1C(C(=O)c2ccccc2)=C(N2CCCCC2)c2ccccc2S1(=O)=O)c1ccccc1 [compound 1211] | 81.77 | 52.31 |
| O=C(CN1C(C(=O)c2ccccc2)=C(O)c2ccccc2S1(=O)=O)c1ccccc1 [compound 1212] | 80.54 | 38.44 |
| CCCN1C(C(=O)c2ccccc2)=C(OC(=O)CC)c2ccccc2S1(=O)=O [compound 1213] | 69.85 | 5.90 |
| CCCCN1C(C(=O)c2ccccc2)=C(OC(C)=O)c2ccccc2S1(=O)=O [compound 1214] | 55.08 | 32.75 |
| CCCCN1C(C(=O)c2ccccc2)=C(OC(=O)CC)c2ccccc2S1(=O)=O [compound 1215] | 52.19 | 7.76 |
| CCCCN1C(C(=O)c2ccccc2)=C(OC(=O)c2ccco2)c2ccccc2S1(=O)=O [compound 1216] | 42.91 | 5.19 |
| CCCCN1C(C(=O)c2ccccc2)=C(OC(=O)C(C)C)c2ccccc2S1(=O)=O [compound 1217] | 45.00 | 10.04 |
| CCCCC(=O)OC1=C(C(=O)c2ccccc2)N(CC)S(=O)(=O)c2ccccc21 [compound 1218] | 82.36 | 3.35 |
| Cc1nn(C)cc1CNC(=O)C1C2CCC(O2)C1C(=O)O (stereo not shown) [compound 1220] | 48.07 | 6.37 |
| COc1ccc(OC)c(NC(=O)C2C3CCC(O3)C2C(=O)O)c1 (stereo not shown) [compound 1221] | 86.33 | 68.62 |
| O=C(O)C1C2CCC(O2)C1C(=O)NCc1ccco1 (stereo not shown) [compound 1222] | 102.27 | 15.04 |
| O=C(O)C1C2CCC(O2)C1C(=O)N1CCN(c2ccc(F)cc2)CC1 (stereo not shown) [compound 1223] | 44.16 | 24.63 |
| N=c1ccn2c(n1)O[C@@H]1[C@@H](O)[C@H](CO)O[C@@H]12 [compound 1226] | 77.96 | 31.01 |
| Cc1cc(C)[n+]2nc3n(-c4ccccc4)c(C)cc(C)c-3c2n1 [compound 1227] | 77.50 | 72.86 |
| CCOC(=O)c1ccc(Nc2nc3nonc3nc2N(CC)CC)cc1 [compound 1228] | 73.46 | 48.23 |
| Cc1ccc(Nc2nc3nonc3nc2NC(C)(C)C)cc1C [compound 1229] | 79.23 | 17.57 |
| Cc1ccc(Nc2nc3nonc3nc2Nc2ccccc2F)cc1 [compound 1230] | 72.00 | 17.54 |
| Cc1cccc(Nc2nc3nonc3nc2Nc2ccc(F)cc2)c1C [compound 1231] | 37.70 | 61.08 |
| CCOc1ccc(NC(=O)c2c(NC(=O)c3ccncc3)sc3c2CCC(C(C)(C)C)C3)cc1 (stereo not shown) [compound 1232] | 112.57 | 23.68 |
